Data taken from patent publication US9173935B2, “Phospholipid drug analogs” (Telormedix SA, priority 2010, dated 2015).
Several values for one entry are separate records, joined by “and”; a condition that tells them apart may be missing. Equal entries are not always repeated. Where two headings read alike, the source gives them in different places.

Columns and labels:
[1] = tested on: AY-27 rat bladder cancer cell-line; details: in vivo
[2] = tested on: AY-27 rat bladder cancer cell-line
[3] = target: CYP2C9 (Homo sapiens (Human), UniProt P11712); experiment: Fluorescent High Throughput P450 assay, CYP2C9; format: biochemical; details: substrate MFC; read-out: CYP2C9 IC50 (Mean ± S.D.)
Procedure: (§1) Inhibition of the P450 isoforms was measured in specific assays using specific substrates that become fluorescent upon CYP metabolism. Compounds, dissolved in ACN (acetonitrile) (CYP2E1, CYP2C8, CYP2B6, CYP3A5) or DMSO (all remaining isoforms), were tested in duplicate (n=2) in concentration-response curves (eight concentrations) in a 96-well plate containing incubation/NADPH regenerating buffer. Specific isoenzymes and substrates were added and incubated at 37° C. Reactions were terminated at different times, depending on the assays, and plates read on a Fluoroskan Ascent at the appropriate emission/excitation wavelengths. Concentration-response curves performed in duplicate for known inhibitors for each isoenzyme were tested in every assay as positive control.

[4] = tested on: PBMCs; experiment: IL-6 and TNF-alpha secretion in PBMCs from three donors (ELISA); format: cell-based, human
Procedure: EC50 values were determined for control and each drug candidate for IL-6 and TNF-alpha secretion. […] The cells were treated with TLR7 agonists for 24 hours in 7 doses. The conditioned media was removed for ELISA analyses for IL-6 and TNF-alpha, and cell survival determined by the XTT method according to the protocol from the supplier. […] Concentrations of IL-6 and TNF-alpha were determined by ELISA from R&D Systems using the Microsoft Excel Software. The results were analyzed in Graph Pad Prism in order to prepare dose-response curves, and for determination of EC50 values.

[5] = tested on: Salmonella typhimurium TA1535, TA1537, TA98, TA100; experiment: Bacterial mutation assay, Salmonella typhimurium; details: absence or presence of S9 metabolism
Procedure: The five tester strains TA1535, TA1537, TA98, TA100 and WP2 uvrA were used. Experiments were performed both in the absence and presence of metabolic activation, using liver S9 fraction from rats pre-treated with phenobarbitone and betanaphthoflavone. SC12 was used as a solution in dimethylsulfoxide (DMSO).

[6] = Intravenous pharmacokinetics in the mouse; details: for Plasma concentration Mean ± S.D.: 1 mg/kg IV
Procedure: An IV bolus was administered into the caudal vein at a dose of 1 mg/kg in […]. The compound weight was 2.08/10.04 ml. 24 mice were studied. […] […] Animals were sacrificed using ethyl ether at the conclusion of the experiment.
Sample preparation: In a Sirocco filter plate, 100 microliters of plasma were added to 300 microliters of ACN/MeOH spiked with 5 microliters of IS (IV298 10 micrograms per ml) plus 10 microliters of 5% H3PO4. The plate was shaken for 10 minutes at 80 rpm and then filtered under vacuum for 5 minutes.
Analytical method: LC/MS/MS: Premiere XE, Eluent: water (A) MeOH(B) plus 0.1% HCOOH gradient. 15% B to 100% B from 0.1 to 0.5, then isocratic 100% B up to 1.5 minutes, flow 0.8 ml/min; Column Acquity UPLC BEH C18 1.7 microm 2.1×50 mm, injection volume of 5 microliters in a T column at 50° C. ESI positive, MRM, Extractor 5V; Capillary 3.5 kV; T source 115° C.; T desolv. 450° C.
Data analysis: Non-compartmental analysis WinNonlin 5.1; linear trapezoidal, uniform weight.

[7] = target: CYP2B6 (Homo sapiens (Human), UniProt P20813); experiment: Fluorescent High Throughput P450 assay, CYP2B6; format: biochemical; details: substrate EFC; read-out: CYP2B6 IC50 (Mean ± S.D.)
Procedure: as §1

[8] = Serum exposure after intravesical chronic treatment
Procedure: Serum samples were taken at time points: day 0, 2 hours, day 1, 24 hours, and day 6, 2 hours.
The plate was shaken for 10 minutes and filtered under vacuum (5-10 mm Hg). […] The plate was shaken for 10 minutes and filtered under vacuum (5-10 mm Hg). Samples were evaporated and re-suspended in 70 microliters of acetonitrile/methanol 1:1. […] Column: Acquity BEH C18 50×2.1 mm 1.7 micrometers; injection volume 5 microliters, T column 50° C. […] Column: Acquity BEH C8 50×2.1 mm 1.7 micrometers injection. volume 10 microliters, T column 50° C.

[9] = day 12, group 1 Imiquimod 0.1%, group 2 SC12 0.38%
[10] = Day 1, 24 hours, LLOQ 0.5 ng/ml SC12, 2.5 ng/ml Imiquimod
[11] = Day 6, 2 hours, LLOQ 0.5 ng/ml SC12, 2.5 ng/ml Imiquimod

Sequence of CYP2C9 (P11712 whole entry, looked up): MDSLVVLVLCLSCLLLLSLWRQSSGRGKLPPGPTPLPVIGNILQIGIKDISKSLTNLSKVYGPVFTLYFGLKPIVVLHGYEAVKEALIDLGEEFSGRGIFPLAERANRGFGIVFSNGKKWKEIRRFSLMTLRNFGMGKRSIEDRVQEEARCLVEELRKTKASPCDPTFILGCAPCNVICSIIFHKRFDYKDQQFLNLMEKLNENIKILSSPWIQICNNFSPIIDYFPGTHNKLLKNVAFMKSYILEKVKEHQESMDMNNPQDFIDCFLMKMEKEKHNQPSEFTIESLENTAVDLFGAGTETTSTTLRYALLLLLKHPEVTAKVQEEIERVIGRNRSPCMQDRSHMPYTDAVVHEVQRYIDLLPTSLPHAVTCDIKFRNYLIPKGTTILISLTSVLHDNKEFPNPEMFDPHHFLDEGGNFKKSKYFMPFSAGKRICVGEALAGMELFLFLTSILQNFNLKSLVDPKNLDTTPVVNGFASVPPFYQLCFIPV
Sequence of CYP2B6 (P20813 whole entry, looked up): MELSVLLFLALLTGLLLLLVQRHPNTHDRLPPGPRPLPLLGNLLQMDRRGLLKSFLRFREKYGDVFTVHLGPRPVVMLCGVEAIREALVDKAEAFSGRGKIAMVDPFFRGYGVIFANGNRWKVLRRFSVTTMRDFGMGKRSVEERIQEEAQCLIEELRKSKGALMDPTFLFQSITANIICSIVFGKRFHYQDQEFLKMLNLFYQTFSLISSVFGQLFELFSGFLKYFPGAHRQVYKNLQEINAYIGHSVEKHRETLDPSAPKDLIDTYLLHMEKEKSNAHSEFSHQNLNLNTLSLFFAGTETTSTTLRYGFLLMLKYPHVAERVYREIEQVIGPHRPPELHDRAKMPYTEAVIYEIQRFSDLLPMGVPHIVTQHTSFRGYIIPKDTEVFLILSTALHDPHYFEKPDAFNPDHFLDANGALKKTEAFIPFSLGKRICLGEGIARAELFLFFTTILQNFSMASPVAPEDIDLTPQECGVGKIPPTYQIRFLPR

CCCCCCCCCCCC(=O)OCC(COP(=O)(O)OCCNC(=O)c1ccc(Cn2c(=O)[nH]c3c(N)nc(OCCOC)nc32)cc1)OC(=O)CCCCCCCCCCC (stereo not drawn) [SC12]
Signs of toxicity [1]: No signs of toxicity | Number of rats with a tumor positive bladder ([2]; day 12): 8 of 14 | Rats with pT2 Tumor, number (% of 14) [2, 9]: 7 (50.0%) | Tumor free rats, number (% of 14) [2, 9]: 6 (42.9%) | Rats with pTa Tumor, number (% of 14) ([2]; day 12, group 2 SC12 0.38%): 1 (7.1%) | Mean weight of the rat bladders ([2]; day 12, intravesical 0.5 ml on day 2 and 5, group 1 Imiquimod 0.1%, group 2 SC12 0.38%): 0.1014 grams | Mean number of tumors per rat bladder ([2]; group 1 Imiquimod 0.1%, group 2 SC12 0.38%): 1.36 | Mean invasion depth ([2]; tumor positive bladders, group 1 Imiquimod 0.1%, group 2 SC12 0.38%): 1.4250 mm | IC50 [3]: 33400 ± 300 nM | EC50 ([4]; D1, first experiments on three donors, read-out: EC50 values, IL-6 secretion): 1440 nM | EC50 ([4]; D2, first experiments on three donors, read-out: EC50 values, IL-6 secretion): 864 nM | EC50 ([4]; D3, first experiments on three donors, read-out: EC50 values, IL-6 secretion): 2780 nM | EC50 ([4]; Donor 1, 24 hours, read-out: IL-6 secretion MC50): 1440 nM | EC50 ([4]; Donor 1, 24 hours, read-out: TNFa secretion MC50): 995 nM | EC50 ([4]; Donor 2, 24 hours, read-out: IL-6 secretion MC50): 864 nM | EC50 ([4]; Donor 2, 24 hours, read-out: TNFa secretion MC50): 275 nM | EC50 ([4]; Donor 3, 24 hours, read-out: IL-6 secretion MC50): 2780 nM | EC50 ([4]; Donor 3, 24 hours, read-out: TNFa secretion MC50): 121 nM | EC50 ([4]; average of three donors, read-out: IL-6 secretion Average EC50): 1700 nM | EC50 ([4]; average of three donors, read-out: TNFa secretion Average EC50): 464 nM | Toxicity to tester strains ([5]; 50.0-5000 micrograms/plate): No toxicity was observed | Reverse mutation ([5]; up to 5000 micrograms/plate): does not induce reverse mutation | AUC INF obs ([6]; 1 mg/kg IV bolus, plasma): 12878 ng·min/mL | AUClast ([6]; 1 mg/kg IV bolus, plasma): 11744 ng·min/mL | C0 ([6]; 1 mg/kg IV bolus, plasma): 2664 ng/mL | CI ([6]; 1 mg/kg IV bolus, plasma): 77.7 mL/min/kg | Clast ([6]; 1 mg/kg IV bolus, plasma): 6 ng/mL | Cmax ([6]; 1 mg/kg IV bolus, plasma): 541 ng/mL | MRT ([6]; 1 mg/kg IV bolus, plasma): 32 min | T ½ ([6]; 1 mg/kg IV bolus, plasma): 130 min | Tlast ([6]; 1 mg/kg IV bolus, plasma): 120 min | Tmax ([6]; 1 mg/kg IV bolus, plasma): 5 min | Vss ([6]; 1 mg/kg IV bolus, plasma): 2.5 L/kg | Plasma concentration Mean ± S.D. ([6]; 5 min): 540.70 ± 179.99 ng/mL | Plasma concentration Mean ± S.D. ([6]; 15 min): 22.27 ± 3.16 ng/mL | Plasma concentration Mean ± S.D. ([6]; 30 min): 10.00 ± 1.68 ng/mL | Plasma concentration Mean ± S.D. ([6]; 60 min): 7.62 ± 0.72 ng/mL | Plasma concentration Mean ± S.D. ([6]; 120 min): 6.05 ± 0.78 ng/mL | Plasma concentration Mean ± S.D. ([6]; 240 min, LLOQ 5 ng/ml): <LLOQ | Plasma concentration Mean ± S.D. ([6]; 480 min, LLOQ 5 ng/ml): <LLOQ | Plasma concentration Mean ± S.D. ([6]; 1440 min, LLOQ 5 ng/ml): <LLOQ | IC50 [7]: > 100000 nM | Levels in serum, Mean ± S.D. ([8]; Day 0, 2 hours): 0.5 ± 0.5 ng/mL | Levels in serum, individual mice ([8]; Day 0, 2 hours, intravesical Imiquimod 208 nmol or SC12 206.5 nmol, LLOQ 0.5 ng/ml SC12, 2.5 ng/ml Imiquimod): <LLOQ (2×) and 1.0 ng/ml and 0.5 ng/ml | Levels in serum, Mean ± S.D. [8, 10]: <LLOQ | Levels in serum, individual mice [8, 10]: <LLOQ | Levels in serum, Mean ± S.D. [8, 11]: <LLOQ | Levels in serum, individual mice [8, 11]: <LLOQ
